Test results reported in ChEMBL document CHEMBL5233223, “Dammarane-type leads panaxadiol and protopanaxadiol for drug discovery: Biological activity and structural modification” (Eur J Med Chem, 2020).

How the values were obtained:
Type in all cases: functional, cell-based
HL-60 = experiment: Antiproliferative activity against human HL-60 cells assessed as cell growth inhibition
A549 = experiment: Antiproliferative activity against human A549 cells assessed as cell growth inhibition
HepG2 = experiment: Antiproliferative activity against human HepG2 cells assessed as cell growth inhibition

CCCCCCC/C=C\CCCCCCCC(=O)O[C@H]1CC[C@@]2(C)C(CC[C@]3(C)C2C[C@@H](O)C2C([C@@](C)(O)CCC=C(C)C)CC[C@]23C)C1(C)C (stereo partly drawn)
IC50 (HL-60): 11.6 µM | IC50 (A549): 29.7 µM | IC50 (HepG2): 9.2 µM
